{"source": "patent US5114926A", "about": "“Tetrapeptide inhibiting the entry into cycle of hemopoietic stem cells processes for its preparation, and its uses” (Institut National De La Sante Et De La Recherche Medicale, priority 1986, dated 1992)", "key": {"[1]": {"system": "CFU-S", "experiment": "in vivo inhibition of the entry into cycle of the CFU-S induced by an injection of Ara-C", "design": "species or system mice of Balb/C or CBA strain", "settings": "for biological activity compared with the natural peptide: synthetic versus natural peptide, tables I, II and III; for % of CFU-S in DNA synthesis: protocol II, i.p.", "experimental": "The biological activity of the fractions is measured by in vivo inhibition tests of the entry into cycle of the CFU-S, induced by an injection of Ara-C.\nThe CFU-S of the mouse, normally quiescent, enter into cycle after an injection of Ara-C.\nThe number of CFU-S is determined by the technique of J. E. Till and E. A. McCulloch, Radiat. Res. 14, (1961), 213-222, whose principle rests on the capacity of CFU-S to form macroscopic colonies in the spleen. These colonies are clones descended from one CFU-S.\nThe proportion of CFU-S in S phase is determined by the method of A. J. Becker et al., Blood, 26, (1965), 296-308, based on the principle of cellular suicides. The incubation of the cells with a tritiated thymidine (precursor of DNA) solution leads to the selective death of the cells in phase of DNA synthesis by integration of a lethal dose of radioactivity (tritium) into the DNA molecule.\nThe tests are performed on SPF (Specific Pathogen Ffree)mice of Balb/C or CBA strain, aged from 2 to 3 months.\n1. The control groups receive by the i.p. route the following treatment:\nTime 0: Ara-C (10 mg--protocol I or 20 mg--protocol II) dissolved in 0.2 ml of saline;\nTime 6H: 0.2 ml of saline;\nTime 8H: sacrifice (protocol I);\nTime 12H: sacrifice (protocol II).\n2. The treated groups receive by the i.p. route:\nTime 0: Ara-C (10 mg--protocol I or 20 mg--protocol II) dissolved in 0.2 ml of saline.\nTime 6h: fraction to be tested dissolved in 0.2 ml of saline;\nTime 8H: sacrifice (protocol I):\nTime 12H: sacrifice (protocol II). [drawing 1]\nFor each of the groups, the bone marrow of the animals is collected and suspended in 2 ml of Medium 199 (EUROBIO). After the numbering and suitable dilution, 2 aliquots of 5×10^6 nucleated cells are incubated at 37° C. for 20 min. either with 1 ml of Medium 199 (Test A), or with 1 ml of tritiated thymidine (200 μCi) (Test B). A cellular suspension of 0.2 ml containing 8×10^4 to 1.2×10^5 nucleated cells is injected intravenously into the retro-orbital sinus of the irradiated receiver animals (9 Gy, 8 mice per experimental plot). Nine days later, the receiver mice are sacrificed, their spleen taken out and fixed in Bouin fluid (1% picric acid: 720 g; formol: 240 g; acetic acid: 4 g, per 1 l of fluid). After some hours of fixation, the nodules visible macroscopically are counted.\nIf N and N' are the average numbers of the nodules obtained on the spleens of the receivers having received cells coming form tests A and B respectively, the proportion of CFU-S in phase of DNA synthesis is calculated by the formula: [formula]"}, "[2]": {"experiment": "survival of animals treated with lethal doses of Ara-C", "format": "in vivo, mice", "settings": "Ara-C 4×925 mg/kg at 0, 7, 24 and 30 hours; tested fraction once at 26 hours", "experimental": "The animals receive fractionated doses of Ara-C (4×925 mg/kg) at times 0, 7, 24 and 30 hours. The tested fraction is administered at once 26 hours after the first injection of Ara-C. The survival of the animals is estimated 15-30 days after the treatment."}, "[3]": {"system": "EMT6 tumor", "experiment": "regression of EMT6 tumors under Ara-C plus inhibitor", "format": "in vivo, mice", "settings": "EMT6 tumor carriers, Ara-C at 0, 7, 24 and 30 hours, inhibitor at 26 hours"}, "[4]": {"system": "CFU-S", "experiment": "toxicity with respect to CFU-S", "format": "in vivo, mice", "settings": "at the doses used"}, "[5]": {"experiment": "lethality in the treated mice", "format": "in vivo", "settings": "at the doses used"}}, "note": "Where “and” joins values, the source holds several entries; their conditions need not be identical. Equal values may be shown once. Where a SMILES comes first, the peptide text is derived from it.", "data": [{"smiles": "CC(=O)N[C@@H](CO)C(=O)N[C@@H](CC(=O)O)C(=O)N[C@@H](CCCCN)C(=O)N1CCC[C@H]1C(=O)O", "note": "[synthetic tetrapeptide, Ac-S-D-K-P--OH] (Ac-SDKP-OH)", "values": [{"measurement": "percentages of CFU-S in phase of DNA synthesis", "setting": "[1]; ARA-C + synthetic tetrapeptide 25 ng/mouse, test 6, second synthesis", "result": 19, "unit": "%"}, {"measurement": "percentages of CFU-S in phase of DNA synthesis", "setting": "[1]; ARA-C + synthetic tetrapeptide 50 ng/mouse, test 5, second synthesis", "result": 13, "unit": "%"}, {"measurement": "percentages of CFU-S in phase of DNA synthesis", "setting": "[1]; ARA-C + synthetic tetrapeptide 100 ng/mouse, tests 4, 7, 8, second synthesis", "result": "6% and 10%"}, {"measurement": "percentages of CFU-S in phase of DNA synthesis, mean", "setting": "[1]; ARA-C + synthetic tetrapeptide, mean of tests 1-8 (25-100 ng/mouse)", "result": 10.5, "unit": "%"}, {"measurement": "biological activity compared with the natural peptide", "setting": "[1]", "result": "possesses the biological properties of the natural peptide"}, {"measurement": "biological activity compared with the natural peptide", "setting": "[1]; listed as synthetic peptide", "result": "quite similar activity to that obtained with a natural peptide"}]}, {"smiles": "CC(=O)N[C@@H](CO)C(=O)N[C@@H](CC(=O)O)C(=O)N[C@@H](CCCCN)C(=O)N1CCC[C@H]1C(=O)O", "note": "[inhibitor, n--acetyl-seryl-aspartyl-lysyl-proline] (Ac-SDKP-OH)", "values": [{"measurement": "percentages of CFU-S in phase of DNA synthesis", "setting": "[1]; ARA-C + natural peptide 100 ng/mouse, bone marrow batch A (5 exp.)", "result": "12.6 ± 14.8", "unit": "%"}, {"measurement": "percentages of CFU-S in phase of DNA synthesis", "setting": "[1]; ARA-C + natural peptide 100 ng/mouse, bone marrow batch B (2 exp.)", "result": "2.99 ± 13", "unit": "%"}, {"measurement": "percentages of CFU-S in phase of DNA synthesis, mean", "setting": "[1]; ARA-C + natural peptide, mean of batches A and B", "result": 7.8, "unit": "%"}, {"measurement": "% of CFU-S in DNA synthesis", "setting": "[1]; Ara-C (20 mg) + inhibitor (100 ng per mouse)", "result": "7 ± 4", "unit": "%"}, {"measurement": "dosage at which the fraction is active in the mouse", "setting": "[1]; homogeneous fraction after reverse phase HPLC", "result": "about 100 ng/mouse"}, {"measurement": "entry of the CFU-S into DNA synthesis (S phase)", "setting": "[1]; inhibitor injected 6 hours after Ara-C", "result": "prevents the entry of the CFU-S into DNA synthesis"}, {"measurement": "survival of the animals 15-30 days after the treatment", "setting": "[2]", "result": "enabled the definitive survival of a large number of animals"}, {"measurement": "effect on the therapeutic action of Ara-C with respect to tumor cells", "setting": "[3]", "result": "does not prevent the therapeutic action of Ara-C with respect to tumor cells"}, {"measurement": "survival of the treated animals", "setting": "[3]; comparable with bone marrow grafting", "result": "permits the survival of the treated animals"}, {"measurement": "toxicity with respect to CFU-S", "setting": "[4]", "result": "devoided of toxicity with respect to CFU-S"}, {"measurement": "lethality in the treated mice", "setting": "[5]", "result": "does not result in any lethality"}]}, {"smiles": "Nc1ccn([C@@H]2O[C@H](CO)[C@@H](O)[C@@H]2O)c(=O)n1", "note": "[Ara-C, cytosine arabinoside, reference compound]", "values": [{"measurement": "percentages of CFU-S in phase of DNA synthesis", "setting": "[1]; ARA-C alone, Table III batch A series (5 exp.)", "result": "40.7 ± 9.3", "unit": "%"}, {"measurement": "percentages of CFU-S in phase of DNA synthesis", "setting": "[1]; ARA-C alone, Table III batch B series (2 exp.)", "result": "47.4 ± 9", "unit": "%"}, {"measurement": "percentages of CFU-S in phase of DNA synthesis, mean", "setting": "[1]; ARA-C alone, mean of Table II tests 1-8", "result": 38.7, "unit": "%"}, {"measurement": "percentages of CFU-S in phase of DNA synthesis, mean", "setting": "[1]; ARA-C alone, mean of Table III series A and B", "result": 44.1, "unit": "%"}, {"measurement": "% of CFU-S in DNA synthesis", "setting": "[1]; Ara-C (20 mg) alone", "result": "43 ± 9", "unit": "%"}]}]}
